Data: patent US10596264B2, “Peptides with viral infection enhancing properties and their use” (Genethon, priority 2011, dated 2020)
Where no end group is shown, it is not given here.

Assays:
[1] = test system: hCD34+ cells; details: for Cytotoxic effect of the peptides: hCD34+ cells transduced with RD114TR-LV or GALVTR-MLV, peptide 12 μg/ml
[2] = test system: human CD34+ cells; format: cell-based
[3] = test system: human hematopoietic cells engraftment; details: hCD34+ cells transduced in presence of 12 μg/ml LAH4-L1
[4] = test system: lentiviral vectors; details: Wurm et al., 2010; cited from earlier work
[5] = test system: 293T cells; test: Transfection of 293T cells with pEGFP-C1 in presence of peptides; format: cell-based; details: peptide 24 μg/ml; 1 μg pEGFP-C1; 48 h
Procedure: FIG. 11. Transfection of 293T cells with pEGFP in presence of LAH4-A4, LAH4-L1 or K2-L10A12-K2 peptides. pEGFP-C1 (1 μg) was mixed in 50 μl of 150 mM NaCl solution with either 3 μg, 4.5 μg, 6 μg or 9 μg of LAH4-A4 or 6 μg of LAH4-L1 or 6 μg of K2-L10A12-K2. Next, the DNA/peptide mix was diluted in 200 μl of DMEM without FCS and loaded onto cell monolayers. 3 hours post-transfection, the medium was replaced with DMEM containing 10% FCS. 48 h later, transfection efficiencies were estimated by monitoring GFP expression using flow cytometry. Data are the average of two independent experiments performed in duplicate with SD.
293T cells (1.5×10E5/well) were plated in 48-well plates the day before transfection. For transfection, 1 μg of pEGFP-C1 was mixed with the desired amount of peptide in 50 μl of 150 mM NaCl solution, vortexed and incubated 15 min at room temperature. Next, the DNA/peptide mix was diluted in 200 μl of DMEM without FCS and loaded onto cell monolayers. 3 hours post-transfection, the medium was replaced with DMEM containing 10% FCS. 48 h later, transfection efficiency was estimated by monitoring GFP expression using flow cytometry.

Substance: ALLHAALAHLLALAHHLLALLKKA-NH2 [LAH4-A4-dKN]
- Cytotoxicity (mortality, 7-AAD) [1]: not the consequence of a strong cytotoxic effect

Substance: KKLLHAALAHLLALAHHLLALLKK (LAH4-A4-d2aa)
- hCD34+ transduction level compared to LAH4-A4 [2]: 30%

Substance: KKALLAHALHLLALLALHLAHALKKA-NH2 [LAH4-L1]
- Cytotoxic effect (mortality, 7-AAD) [1]: did not observe any cytotoxic effect
- Cytotoxic effect of the peptides [1]: did not observe any cytotoxic effect
- Cytotoxic or deleterious effect on human immune system reconstitution [3]: did not observed any cytotoxic or deleterious effect

Substance: KKALLAHALHLLALLALHLAHALA (LAH4-L1-dKC)
- Transduction efficiency compared with LAH4-L1 (in words) [2]: as efficiently as LAH4-L1

Substance: KALLHAALAHLLALAHHLLALLKKA (LAH4-A4-K1N)
- hCD34+ transduction level compared to LAH4-A4 [2]: 60%

Substance: KKALLHALLAHLAALLHALLAHLKKA-NH2 [LAH4-A5]
- Cytotoxic effect of the peptides [1]: did not observe any cytotoxic effect

Substance: KKALLHAALAHLLALAAALLALLKKA-NH2 [LAH2-A6]
- Cytotoxicity (mortality, 7-AAD) [1]: no apparent cytotoxicity

Substance: KKALLHAALAHLLPLAHHLLALLKKA (LAH4-A4-P14)
- Lentiviral transduction abolished relative to LAH4-A4 [2]: 80%

Substance: KKALLAKALKLLALLALKLAKALKKA-NH2 [LAK4-L1]
- Cytotoxicity (mortality, 7-AAD) [1]: not the consequence of a strong cytotoxic effect

Substance: RRALLAHALHLLALLALHLAHALRRA-NH2 [LAH4-L1-R]
- Cytotoxicity (mortality, 7-AAD) [1]: no apparent cytotoxicity

Substance: KKALLHAALAHLLALAHHLLALLKK (LAH4-A4-d1aa)
- Transduction efficiency compared with LAH4-A4 (in words) [2]: slightly decreases the efficiency

Substance: HHALLAHALHLLALLALHLAHALHHA (LAH8-L1)
- Transduction efficiency compared with LAH4-L1 (in words) [2]: detrimental

Substance: ALLAHALHLLALLALHLAHALA (LAH4-L1-dK) [LAH4-L 1-dK]
- Transduction efficiency compared with LAH4-L1 (in words) [2]: not detectable

Substance: LAH4-L4: L series peptide with hydrophilic angle of 140°; b61: LAH4-L4 peptide of SEQ ID NO:36; possibly LAH4-L4iso is meant (KKALLALALHHLALLAHLLALHLKKA; LAH4-L4) [L series peptide with hydrophilic angle of 140°; possibly LAH4-L4iso is meant]
- Capacity to promote transduction of hCD34+ cells with GALVTR-LVs, ranking within L and A series of isomers [2]: most efficient

Substance: GIHKQKEKSRLQGGVLVNEILNHMKRATQIPSYKKLIMY (SEVI) [human Semen Enhancer of Viral Infection, fragment of the human prostatic acid phosphatase; not amidated]
- Ability to promote the transduction of lentiviral vectors [4]: able to promote the transduction of lentiviral vectors

Substance: ALLAHALHLLALLALHLAHALKKA (LAH4-L1-dKN)
- Transduction efficiency compared with LAH4-L1 (in words) [2]: not detectable

Substance: KKKLLHAALAHLLALAHHLLALLKKA (LAH4-A4-K3N)
- Transduction efficiency compared with LAH4-A4 (in words) [2]: as efficient as LAH4-A4

Substance: KKALLHLALLHAALLAHHLALALKKA-NH2 [LAH4-L4ISO]
- Cytotoxic effect of the peptides [1]: did not observe any cytotoxic effect

Substance: KKALLHAALAHLLALAHHLLALLKKA-NH2 [LAH4-A4]
- Cytotoxicity (mortality, 7-AAD) [1]: no apparent cytotoxicity
- Cytotoxicity (mortality, 7-AAD) in dose-response experiment [1]: no apparent cytotoxicity
- Cytotoxic effect of the peptides [1]: did not observe any cytotoxic effect

Substance: KKLLLHALLAHLLALLHHLLALLKKL (LAH4-A4-Leu)
- Transduction efficiency compared with LAH4-A4 (in words) [2]: two times less potent than LAH4-A4

Substance: KKALLAAALAALLALAHHLLALLKKA (LAH2-A4)
- Transduction efficiency compared with LAH4-A4 (in words) [2]: not functional

Substance: KKALLAAALAALLALAAALLALLKKA (K2-L10A12-K2)
- Transduction efficiency compared with LAH4-A4 (in words) [2]: still able to promote some lentiviral transduction
- hCD34+ transduction level compared to LAH4-A4 [2]: 17%
- Transfection of 293T cells with GFP plasmid [5]: unable to promote cell transfection
